Reference: ChEMBL document CHEMBL5625252, “Synthesis of peptidomimetics as antibiotic adjuvants for combination with aztreonam to combat MDR Pseudomonas aeruginosa” (Eur J Med Chem, 2023)
≈ marks a conversion by molar mass, not a printed value.

What was measured:
Type in all cases: functional
Klebsiella pneumoniae [1] = assay: Antibacterial activity against NDM-1 (+) Klebsiella pneumoniae 09-20 assessed as inhibition of bacterial growth incubated for 18 hrs by agar dilution method
Escherichia coli [2] = assay: Antibacterial activity against NDM-1 (+) Escherichia coli CDC 1001728 assessed as inhibition of bacterial growth incubated for 18 hrs by agar dilution method
Escherichia coli [3] = assay: Antibacterial activity against mcr-1 (+) Escherichia coli 08-85 assessed as inhibition of bacterial growth incubated for 18 hrs by agar dilution method
Pseudomonas aeruginosa [4] = assay: Antibacterial activity against BL (+) Pseudomonas aeruginosa ATCC 27853 assessed as inhibition of bacterial growth incubated for 18 hrs by agar dilution method
Escherichia coli [5] = assay: Antibacterial activity against ESBLs (+) Escherichia coli 16-1 assessed as inhibition of bacterial growth incubated for 18 hrs by agar dilution method
Klebsiella pneumoniae [6] = assay: Antibacterial activity against ESBLs (+) Klebsiella pneumoniae ATCC 700603 assessed as inhibition of bacterial growth incubated for 18 hrs by agar dilution method
Klebsiella pneumoniae [7] = assay: Antibacterial activity against NDM-1 (+) Klebsiella pneumoniae 2146 assessed as inhibition of bacterial growth incubated for 18 hrs by agar dilution method
Klebsiella pneumoniae [8] = assay: Antibacterial activity against ESBLs (+) Klebsiella pneumoniae 16-14 assessed as inhibition of bacterial growth incubated for 18 hrs by agar dilution method
Escherichia coli [9] = assay: Antibacterial activity against ESBLs (-) Escherichia coli ATCC 25922 assessed as inhibition of bacterial growth incubated for 18 hrs by agar dilution method
Pseudomonas aeruginosa [10] = assay: Antibacterial activity against Pseudomonas aeruginosa PAO1 assessed as inhibition of bacterial growth incubated for 18 hrs by agar dilution method
Pseudomonas aeruginosa [11] = assay: Synergistic antibacterial activity against Pseudomonas aeruginosa PAO1 assessed as aztreonam MIC upto […] ug/ml incubated for 18 hrs by checkerboard method (reference value: 8 microg/ml)

Compound | MIC (Klebsiella pneumoniae [1]) | MIC (Escherichia coli [2]) | MIC (Escherichia coli [3]) | MIC (Pseudomonas aeruginosa [4]) | MIC (Escherichia coli [5]) | MIC (Klebsiella pneumoniae [6]) | MIC (Klebsiella pneumoniae [7]) | MIC (Klebsiella pneumoniae [8]) | MIC (Escherichia coli [9]) | MIC (Pseudomonas aeruginosa [10]) | MIC (Pseudomonas aeruginosa [11])
C[C@H]1[C@H](NC(=O)/C(=N\OCC(=O)N2CCC[C@@H]2C(=O)O)c2csc(N)n2)C(=O)N1S(=O)(=O)O | 2 µg/mL (≈ 3.96 µM) | 8 µg/mL (≈ 15.9 µM) | > 64 µg/mL | > 64 µg/mL | 0.12 µg/mL (≈ 0.238 µM) | > 64 µg/mL | > 64 µg/mL | 16 µg/mL (≈ 31.7 µM) | 0.12 µg/mL (≈ 0.238 µM) | 32 µg/mL (≈ 63.4 µM) | 
POLYMYXIN B | 16 µg/mL | 1 µg/mL | 8 µg/mL | 4 µg/mL | 0.25 µg/mL | 2 µg/mL | 1 µg/mL | 1 µg/mL | 1 µg/mL | 8 µg/mL | 
C[C@H](O/N=C(\C(=O)N[C@@H]1C(=O)N(OS(=O)(=O)O)C1(C)C)c1csc(N)n1)C(=O)O | 0.5 µg/mL (≈ 1.11 µM) |  | 0.25 µg/mL (≈ 0.554 µM) | 16 µg/mL (≈ 35.4 µM) | 0.125 µg/mL (≈ 0.277 µM) | 8 µg/mL (≈ 17.7 µM) | 4 µg/mL (≈ 8.86 µM) | 0.25 µg/mL (≈ 0.554 µM) | 0.25 µg/mL (≈ 0.554 µM) | 16 µg/mL (≈ 35.4 µM) | 
NCCC[C@H](NC(=O)CCc1ccc(C(F)(F)F)cc1)C(=O)Nc1ccc2ccccc2c1 |  |  |  |  |  |  |  |  |  |  | 8 µg/mL
C#CCO/N=C(\C(=O)N[C@@H]1C(=O)N(S(=O)(=O)O)[C@H]1C)c1nsc(N)n1 | > 64 µg/mL | 32 µg/mL (≈ 82.4 µM) | > 64 µg/mL | 64 µg/mL (≈ 165 µM) | 16 µg/mL (≈ 41.2 µM) | > 64 µg/mL | > 64 µg/mL | > 64 µg/mL | 8 µg/mL (≈ 20.6 µM) | 16 µg/mL (≈ 41.2 µM) | 
CC(C)[C@@H](O/N=C(\C(=O)N[C@@H]1C(=O)N(OS(=O)(=O)O)C1(C)C)c1csc(N)n1)C(=O)O | 16 µg/mL (≈ 33.4 µM) | 32 µg/mL (≈ 66.7 µM) | 32 µg/mL (≈ 66.7 µM) | > 64 µg/mL | 8 µg/mL (≈ 16.7 µM) | 64 µg/mL (≈ 133 µM) | > 64 µg/mL | 16 µg/mL (≈ 33.4 µM) | 16 µg/mL (≈ 33.4 µM) | > 64 µg/mL | 
NCCC[C@H](NC(=O)CCc1ccc([N+](=O)[O-])cc1)C(=O)Nc1ccc2ccccc2c1 |  |  |  |  |  |  |  |  |  |  | 8 µg/mL
C[C@H]1[C@H](NC(=O)/C(=N\OCC(=O)N2CCC(C(=O)O)CC2)c2csc(N)n2)C(=O)N1S(=O)(=O)O | > 64 µg/mL | 16 µg/mL (≈ 30.9 µM) | > 64 µg/mL | > 64 µg/mL | 16 µg/mL (≈ 30.9 µM) | > 64 µg/mL | > 64 µg/mL | > 64 µg/mL | 4 µg/mL (≈ 7.71 µM) | > 64 µg/mL | 
NCCC[C@H](NC(=O)CCc1cc(F)cc(F)c1)C(=O)Nc1ccc2ccccc2c1 |  |  |  |  |  |  |  |  |  |  | 2 µg/mL
CCOC(=O)[C@H](CCc1ccccc1)NC(=O)[C@H](CCCN)NC(=O)c1ccc2ccccc2c1 |  |  |  |  |  |  |  |  |  |  | 8 µg/mL
COC(=O)[C@H](Cc1ccccc1)NC(=O)[C@H](CCCN)NC(=O)c1ccc2ccccc2c1 |  |  |  |  |  |  |  |  |  |  | 8 µg/mL
NCCC[C@H](NC(=O)c1ccc2ccccc2c1)C(=O)N[C@@H](CCc1ccccc1)C(=O)O |  |  |  |  |  |  |  |  |  |  | 8 µg/mL
NCCC[C@H](NC(=O)CCc1ccc(F)cc1)C(=O)Nc1ccc2ccccc2c1 |  |  |  |  |  |  |  |  |  |  | 8 µg/mL
NCCC[C@H](NC(=O)Cc1ccc2ccccc2c1)C(=O)N[C@@H](Cc1ccccc1)C(=O)O |  |  |  |  |  |  |  |  |  |  | 8 µg/mL
C=CCO/N=C(\C(=O)N[C@@H]1C(=O)N(S(=O)(=O)O)[C@H]1C)c1nsc(N)n1 | > 64 µg/mL | 64 µg/mL (≈ 164 µM) | > 64 µg/mL | > 64 µg/mL | 16 µg/mL (≈ 41 µM) | > 64 µg/mL | > 64 µg/mL | > 64 µg/mL | 8 µg/mL (≈ 20.5 µM) | 64 µg/mL (≈ 164 µM) | 
CC(C)[C@H](O/N=C(\C(=O)N[C@@H]1C(=O)N(OS(=O)(=O)O)C1(C)C)c1csc(N)n1)C(=O)O | 0.25 µg/mL (≈ 0.521 µM) | 0.5 µg/mL (≈ 1.04 µM) | 0.25 µg/mL (≈ 0.521 µM) | 8 µg/mL (≈ 16.7 µM) | 0.125 µg/mL (≈ 0.261 µM) | 2 µg/mL (≈ 4.17 µM) | 1 µg/mL (≈ 2.09 µM) | 0.125 µg/mL (≈ 0.261 µM) | 0.25 µg/mL (≈ 0.521 µM) | 4 µg/mL (≈ 8.34 µM) | 
